Measurements published in PMC6271783 (Molecules, 2014).
“Also recorded” adds a separate entry of the source.

Assays:
[1] = assay type: physicochemical; details: pH 7
rat α3β2 nAChRs [2] = biological target: T1, rat α3β2 nAChRs (Rattus norvegicus, UniProt P04757+P12390); test: biochemical
T1 construct: expressed in transfected cells; host or cells: Xenopus laevis oocytes injected with cRNA

[3] = system: AChBPs from different species; details: cited from earlier work
rat α3β2 nAChRs [4] = biological target: T1, rat α3β2 nAChRs; assay type: biochemical
α3β2 nAChRs = details: cited from earlier work

T1 sequence (P04757 26-499 limits assumed): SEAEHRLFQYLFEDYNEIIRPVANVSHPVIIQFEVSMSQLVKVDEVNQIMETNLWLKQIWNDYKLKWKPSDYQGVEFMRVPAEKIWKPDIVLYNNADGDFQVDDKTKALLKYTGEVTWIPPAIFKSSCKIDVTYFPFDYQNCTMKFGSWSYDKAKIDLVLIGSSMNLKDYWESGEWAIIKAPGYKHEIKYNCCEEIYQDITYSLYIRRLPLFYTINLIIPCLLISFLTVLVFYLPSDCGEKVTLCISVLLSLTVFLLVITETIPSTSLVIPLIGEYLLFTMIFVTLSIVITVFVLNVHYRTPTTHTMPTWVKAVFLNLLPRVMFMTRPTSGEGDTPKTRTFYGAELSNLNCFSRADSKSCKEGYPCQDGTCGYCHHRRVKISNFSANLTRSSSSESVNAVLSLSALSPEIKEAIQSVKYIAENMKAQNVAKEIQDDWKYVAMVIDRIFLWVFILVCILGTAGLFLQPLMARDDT
T1 sequence (P12390 25-500 limits assumed): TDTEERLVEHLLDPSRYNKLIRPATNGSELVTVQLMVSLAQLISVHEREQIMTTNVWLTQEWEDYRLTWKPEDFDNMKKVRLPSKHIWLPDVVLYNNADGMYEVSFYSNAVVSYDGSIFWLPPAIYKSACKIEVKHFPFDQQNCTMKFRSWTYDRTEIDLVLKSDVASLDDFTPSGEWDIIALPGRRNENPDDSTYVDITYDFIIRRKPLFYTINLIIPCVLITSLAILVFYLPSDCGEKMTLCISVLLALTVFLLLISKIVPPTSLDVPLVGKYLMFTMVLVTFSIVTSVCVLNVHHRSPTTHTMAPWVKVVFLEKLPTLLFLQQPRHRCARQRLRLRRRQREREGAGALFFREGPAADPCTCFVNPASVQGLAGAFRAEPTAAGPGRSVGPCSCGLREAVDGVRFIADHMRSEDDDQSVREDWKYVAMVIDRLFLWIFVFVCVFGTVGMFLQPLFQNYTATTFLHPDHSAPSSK

Compound | CD minimum [1] | CD minimum, second of double minimum [1] [nm] | secondary structure by CD [1] | IC50 (rat α3β2 nAChRs [2]) [nM] | activity on α3β2 nAChRs (rat α3β2 nAChRs [2]) | fold more potent than ribbon isomer (rat α3β2 nAChRs [2]) | inhibition of ACh-evoked response (rat α3β2 nAChRs [2]) | reversibility of inhibition (rat α3β2 nAChRs [2]) | affinity to AChBPs [3] | relative potency among venom components (rat α3β2 nAChRs [4]) | selectivity (α3β2 nAChRs) | fold less potent than globular isomer (rat α3β2 nAChRs [2]) | inhibition at 0.5 µM (rat α3β2 nAChRs [2]; read-out: inhibition of ACh evoked current amplitude) [%]
CC[C@H](C)[C@@H]1NC(=O)[C@@H]2CSSC[C@H](NC(=O)CN)C(=O)N[C@@H](CSSC[C@@H](C(N)=O)NC(=O)[C@H](CC(C)C)NC(=O)[C@H](CC(=O)O)NC(=O)[C@@H]3CCCN3C(=O)[C@H](CC(N)=O)NC(=O)[C@H](CC(N)=O)NC(=O)[C@H](C)NC1=O)C(=O)N[C@@H](CO)C(=O)N[C@@H](CCCNC(=N)N)C(=O)N1CCC[C@H]1C(=O)N1CCC[C@H]1C(=O)N2 [globular TxIA, α-conotoxin TxIA] | around 208 nm | ~222 | contained some α-helical structure | 5.4 | most potent isoform; also recorded: strongly inhibited; also recorded: most active form | ~ 80 -fold | almost complete inhibition | reversibly inhibited | high affinity | most potent component; also recorded: highest potency | selectively targeted the α3β2 nAChRs | – | –
CC[C@H](C)[C@@H]1NC(=O)[C@@H]2CSSC[C@H](NC(=O)[C@@H](NC(=O)CN)CSSC[C@@H](C(N)=O)NC(=O)[C@H](CC(C)C)NC(=O)[C@H](CC(=O)O)NC(=O)[C@@H]3CCCN3C(=O)[C@H](CC(N)=O)NC(=O)[C@H](CC(N)=O)NC(=O)[C@H](C)NC1=O)C(=O)N[C@@H](CO)C(=O)N[C@@H](CCCNC(=N)N)C(=O)N1CCC[C@H]1C(=O)N1CCC[C@H]1C(=O)N2 [ribbon TxIA] | – | – | between them | 430 | weaker potency | – | – | – | – | – | – | ~ 80 times | ~65
